Reference: ChEMBL document CHEMBL3885881, “DrugMatrix”

Organism: Rattus norvegicus
Test: DrugMatrix - Regimen: Daily Repeat
Assay type: toxicity, organism-based, Sprague-Dawley
Parameters: regimen Daily Repeat, gender Male, age 6-8 weeks
Conditions: in vivo, po, route oral GAVAGE, vehicle 100 % WATER; for ABSOLUTE BASOPHIL / ABSOLUTE EOSINOPHIL / ABSOLUTE LYMPHOCYTE / ABSOLUTE MONOCYTE / ABSOLUTE SEGMENTED NEUTROPHIL / BASOPHIL / EOSINOPHIL / ERYTHROCYTE COUNT / HEMATOCRIT / HEMOGLOBIN / LEUKOCYTE COUNT / LYMPHOCYTE / MEAN CORPUSCULAR HEMOGLOBIN / MEAN CORPUSCULAR HEMOGLOBIN CONCENTRATION / MEAN CORPUSCULAR VOLUME / MONOCYTE / NEUTROPHIL / NUCLEATED RED BLOOD CELLS / PLATELET COUNT: tissue Blood; for ALANINE AMINOTRANSFERASE / ALBUMIN / ALKALINE PHOSPHATASE / ASPARTATE AMINOTRANSFERASE / BLOOD UREA NITROGEN / CARBON DIOXIDE / CHLORIDE / CHOLESTEROL / CREATINE PHOSPHOKINASE / CREATININE / GLUCOSE / LACTATE DEHYDROGENASE / LIPASE / PHOSPHORUS / POTASSIUM / SODIUM / TOTAL BILIRUBIN / TOTAL PROTEIN / URIC ACID: tissue Plasma
[1] = 30 mg/kg, 120 h, dose level Low, time 5 day
[2] = 3000 mg/kg, 72 h, dose level High, time 3 day
[3] = 3000 mg/kg, 120 h, dose level High, time 5 day

CC1COc2c(N3CCN(C)CC3)c(F)cc3c(=O)c(C(=O)O)cn1c23 (centres undefined) [OFLOXACIN]
ABSOLUTE BASOPHIL [1]: 0 CELLS/uL
ABSOLUTE EOSINOPHIL [1]: 0 CELLS/uL
ABSOLUTE LYMPHOCYTE [1]: 11457 CELLS/uL
ABSOLUTE MONOCYTE [1]: 48.33 CELLS/uL
ABSOLUTE SEGMENTED NEUTROPHIL [1]: 1361.33 CELLS/uL
BASOPHIL [1]: 0%
EOSINOPHIL [1]: 0%
ERYTHROCYTE COUNT [1]: 5.63 x10E6/uL
HEMATOCRIT [1]: 35.6%
HEMOGLOBIN [1]: 14.27 G/DL
LEUKOCYTE COUNT [1]: 12.87 x10E3/uL
LYMPHOCYTE [1]: 89%
MEAN CORPUSCULAR HEMOGLOBIN [1]: 25.37 pg
MEAN CORPUSCULAR HEMOGLOBIN CONCENTRATION [1]: 40.07 G/DL
MEAN CORPUSCULAR VOLUME [1]: 63.23 fL
MONOCYTE [1]: 0.33%
NEUTROPHIL [1]: 10.67%
NUCLEATED RED BLOOD CELLS [1]: 0 /100WBC
PLATELET COUNT [1]: 1227 x10E3/uL
ALANINE AMINOTRANSFERASE [1]: 50 u/L
ALBUMIN [1]: 4.2 G/DL
ALKALINE PHOSPHATASE [1]: 350.67 u/L
ASPARTATE AMINOTRANSFERASE [1]: 79 u/L
BLOOD UREA NITROGEN [1]: 13.67 mg/dL
CARBON DIOXIDE [1]: 33.67 mmol/L
CHLORIDE [1]: 101.33 MEQ/L
CHOLESTEROL [1]: 68.33 mg/dL
CREATINE PHOSPHOKINASE [1]: 179.33 u/L
CREATININE [1]: 0.19 mg/dL
GLUCOSE [1]: 155.67 mg/dL
LACTATE DEHYDROGENASE [1]: 144 u/L
LIPASE [1]: 12.33 u/L
PHOSPHORUS [1]: 11.93 mg/dL
POTASSIUM [1]: 6.45 MEQ/L
SODIUM [1]: 144.3 MEQ/L
TOTAL BILIRUBIN [1]: 0.13 mg/dL
TOTAL PROTEIN [1]: 5.9 G/DL
URIC ACID [1]: 1.4 mg/dL
ABSOLUTE BASOPHIL [2]: 0 CELLS/uL
ABSOLUTE EOSINOPHIL [2]: 96.33 CELLS/uL
ABSOLUTE LYMPHOCYTE [2]: 13060.67 CELLS/uL
ABSOLUTE MONOCYTE [2]: 229.33 CELLS/uL
ABSOLUTE SEGMENTED NEUTROPHIL [2]: 680.33 CELLS/uL
BASOPHIL [2]: 0%
EOSINOPHIL [2]: 0.67%
ERYTHROCYTE COUNT [2]: 5.79 x10E6/uL
HEMATOCRIT [2]: 36.3%
HEMOGLOBIN [2]: 14.37 G/DL
LEUKOCYTE COUNT [2]: 14.07 x10E3/uL
LYMPHOCYTE [2]: 92.67%
MEAN CORPUSCULAR HEMOGLOBIN [2]: 24.83 pg
MEAN CORPUSCULAR HEMOGLOBIN CONCENTRATION [2]: 39.57 G/DL
MEAN CORPUSCULAR VOLUME [2]: 62.7 fL
MONOCYTE [2]: 1.67%
NEUTROPHIL [2]: 5%
NUCLEATED RED BLOOD CELLS [2]: 0 /100WBC
PLATELET COUNT [2]: 1277.33 x10E3/uL
ALANINE AMINOTRANSFERASE [2]: 62.33 u/L
ALBUMIN [2]: 3.93 G/DL
ALKALINE PHOSPHATASE [2]: 286.33 u/L
ASPARTATE AMINOTRANSFERASE [2]: 99.33 u/L
BLOOD UREA NITROGEN [2]: 13.33 mg/dL
CARBON DIOXIDE [2]: 22.33 mmol/L
CHLORIDE [2]: 105.33 MEQ/L
CHOLESTEROL [2]: 67 mg/dL
CREATINE PHOSPHOKINASE [2]: 1225.67 u/L
CREATININE [2]: 0.2 mg/dL
GLUCOSE [2]: 162.33 mg/dL
LACTATE DEHYDROGENASE [2]: 245 u/L
LIPASE [2]: 9.67 u/L
PHOSPHORUS [2]: 11.1 mg/dL
POTASSIUM [2]: 5.42 MEQ/L
SODIUM [2]: 145.2 MEQ/L
TOTAL BILIRUBIN [2]: 0.17 mg/dL
TOTAL PROTEIN [2]: 5.57 G/DL
URIC ACID [2]: 1.57 mg/dL
ABSOLUTE BASOPHIL [3]: 0 CELLS/uL
ABSOLUTE EOSINOPHIL [3]: 0 CELLS/uL
ABSOLUTE LYMPHOCYTE [3]: 16402.33 CELLS/uL
ABSOLUTE MONOCYTE [3]: 44.67 CELLS/uL
ABSOLUTE SEGMENTED NEUTROPHIL [3]: 986.33 CELLS/uL
BASOPHIL [3]: 0%
EOSINOPHIL [3]: 0%
ERYTHROCYTE COUNT [3]: 5.74 x10E6/uL
HEMATOCRIT [3]: 35.4%
HEMOGLOBIN [3]: 14.07 G/DL
LEUKOCYTE COUNT [3]: 17.43 x10E3/uL
LYMPHOCYTE [3]: 93.67%
MEAN CORPUSCULAR HEMOGLOBIN [3]: 24.53 pg
MEAN CORPUSCULAR HEMOGLOBIN CONCENTRATION [3]: 39.73 G/DL
MEAN CORPUSCULAR VOLUME [3]: 61.73 fL
MONOCYTE [3]: 0.33%
NEUTROPHIL [3]: 6%
NUCLEATED RED BLOOD CELLS [3]: 0 /100WBC
PLATELET COUNT [3]: 1340 x10E3/uL
ALANINE AMINOTRANSFERASE [3]: 60.33 u/L
ALBUMIN [3]: 4.17 G/DL
ALKALINE PHOSPHATASE [3]: 195 u/L
ASPARTATE AMINOTRANSFERASE [3]: 83 u/L
BLOOD UREA NITROGEN [3]: 14.33 mg/dL
CARBON DIOXIDE [3]: 27 mmol/L
CHLORIDE [3]: 104.33 MEQ/L
CHOLESTEROL [3]: 67.33 mg/dL
CREATINE PHOSPHOKINASE [3]: 394.67 u/L
CREATININE [3]: 0.22 mg/dL
GLUCOSE [3]: 147.67 mg/dL
LACTATE DEHYDROGENASE [3]: 555.67 u/L
LIPASE [3]: 10 u/L
PHOSPHORUS [3]: 11.37 mg/dL
POTASSIUM [3]: 5.87 MEQ/L
SODIUM [3]: 144.67 MEQ/L
TOTAL BILIRUBIN [3]: 0.13 mg/dL
TOTAL PROTEIN [3]: 5.97 G/DL
URIC ACID [3]: 1.67 mg/dL
